Source: US7241770B2 (priority 2003, dated 2007)
Read-outs that look alike come from different tables or passages of the source.

Columns and labels:
[1] = test system: visceral hypersensitivity; set-up: species or system adult female Sprague Dawley rats; conditions: rat
[2] = test system: castor oil induced diarrhoea; set-up: species or system male NMRI mice; conditions: mouse, sc
normal colon transit = test system: normal colon transit; set-up: species or system male Sprague Dawley rats; conditions: rat

SMILES | In vivo agonism hypersensitivity max inhibition % of control ([1]; sc) | In vivo agonism diarrhoea mean score % control [2] | In vivo agonism transit Mean retention time % control (normal colon transit; sc) | In vivo agonism transit Mean retention time % control (normal colon transit; po) | In vivo agonism hypersensitivity max inhibition % of control ([1]; po)
CC1(C)C2CCC(CCN3CCC4(CC3)C(=O)NCN4c3ccccc3)C1C2 (stereo not shown) [Example 1, 8-[2-(6,6-Dimethyl-bicyclo[3.1.1]hept-2-yl)-ethyl]-1-phenyl-1,3,8-triaza-spiro[4.5]decan-4-one] | 49 (s.c.) % of control | – | – | – | –
CNCCCN1CN(c2ccccc2)C2(CCN(CCC3CCC4CC3C4(C)C)CC2)C1=O (stereo not shown) [Example 13, 8-[2-(6,6-Dimethyl-bicyclo[3.1.1]hept-2-yl)-ethyl]-3-(3-methylamino-propyl)-1-phenyl-1,3,8-triaza-spiro[4.5]decan-4-one] | – | 59 (s.c.) % control | 105 (s.c.) % control | – | –
CNCCCCN1CN(c2ccccc2)C2(CCN(CCC3CCC4CC3C4(C)C)CC2)C1=O (stereo not shown) [Example 14] | – | 64 (s.c.) % control | 111 (s.c.) % control | – | –
CN(CCCN1CN(c2ccccc2)C2(CCN(CCC3CCC4CC3C4(C)C)CC2)C1=O)CC1(O)CCNCC1 (stereo not shown) [Example 37, 8-[2-(6,6-Dimethyl-bicyclo[3.1.1]hept-2-yl)-ethyl]-3-{3-[(4-hydroxy-piperidin-4-ylmethyl)-methyl-amino]-propyl}-1-phenyl-1,3,8-triaza-spiro[4.5]decan-4-one] | 34 (s.c.) % of control | – | – | – | –
CN(CCN1CN(c2ccccc2)C2(CCN(CCC3CCC4CC3C4(C)C)CC2)C1=O)C(c1ccco1)C(O)CO (stereo not shown) [Example 51] | 45 (s.c.) % of control | – | 102 (s.c.) % control | 105 (p.o.) % control | 44 (p.o.) % of control
